{
  "source": "patent US20260356830A1",
  "about": "“COMPOUNDS FOR MODULATING RET PROTEIN” (Bristol-Myers Squibb Company, priority 2022, published 2026)",
  "target": "T1, CCDC6-RET (Homo sapiens, UniProt P07949+Q16204+Q96SW2)",
  "T1 construct": "CCDC6 (natural N-terminal fusion partner, UniProt Q16204); endogenous in cells; host or cells: TPC-1 (parental, papillary thyroid carcinoma)",
  "T1 sequence (Q16204+P07949 fused)": "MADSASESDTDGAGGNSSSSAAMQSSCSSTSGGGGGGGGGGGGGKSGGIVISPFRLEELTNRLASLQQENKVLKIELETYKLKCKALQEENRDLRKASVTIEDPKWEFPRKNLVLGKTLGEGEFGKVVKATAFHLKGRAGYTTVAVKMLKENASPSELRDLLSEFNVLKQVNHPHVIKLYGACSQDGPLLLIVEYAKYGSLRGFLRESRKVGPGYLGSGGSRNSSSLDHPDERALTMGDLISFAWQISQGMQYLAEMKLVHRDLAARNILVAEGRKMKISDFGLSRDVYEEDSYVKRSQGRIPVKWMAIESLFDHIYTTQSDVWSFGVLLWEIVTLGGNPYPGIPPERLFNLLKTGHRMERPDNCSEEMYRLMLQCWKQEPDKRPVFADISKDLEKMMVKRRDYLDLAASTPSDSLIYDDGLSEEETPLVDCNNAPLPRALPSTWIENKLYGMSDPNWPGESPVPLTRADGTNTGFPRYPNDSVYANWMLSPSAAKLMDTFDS",
  "T1 sequence (Q96SW2 whole entry, the tested form may be a part)": "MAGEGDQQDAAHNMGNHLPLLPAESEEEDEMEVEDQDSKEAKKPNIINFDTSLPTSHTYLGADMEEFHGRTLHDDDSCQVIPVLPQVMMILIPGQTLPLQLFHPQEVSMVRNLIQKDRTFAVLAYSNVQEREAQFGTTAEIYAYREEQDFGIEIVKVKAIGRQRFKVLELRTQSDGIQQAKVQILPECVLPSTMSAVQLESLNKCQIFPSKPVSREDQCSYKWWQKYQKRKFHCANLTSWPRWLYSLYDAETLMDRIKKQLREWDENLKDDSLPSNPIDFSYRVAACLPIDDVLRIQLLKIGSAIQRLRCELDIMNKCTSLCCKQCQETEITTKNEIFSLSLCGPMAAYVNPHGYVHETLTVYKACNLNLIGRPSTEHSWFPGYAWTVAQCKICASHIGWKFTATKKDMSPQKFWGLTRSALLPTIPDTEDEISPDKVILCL",
  "T1 sequence (Q16531 whole entry partner, the tested form may be a part)": "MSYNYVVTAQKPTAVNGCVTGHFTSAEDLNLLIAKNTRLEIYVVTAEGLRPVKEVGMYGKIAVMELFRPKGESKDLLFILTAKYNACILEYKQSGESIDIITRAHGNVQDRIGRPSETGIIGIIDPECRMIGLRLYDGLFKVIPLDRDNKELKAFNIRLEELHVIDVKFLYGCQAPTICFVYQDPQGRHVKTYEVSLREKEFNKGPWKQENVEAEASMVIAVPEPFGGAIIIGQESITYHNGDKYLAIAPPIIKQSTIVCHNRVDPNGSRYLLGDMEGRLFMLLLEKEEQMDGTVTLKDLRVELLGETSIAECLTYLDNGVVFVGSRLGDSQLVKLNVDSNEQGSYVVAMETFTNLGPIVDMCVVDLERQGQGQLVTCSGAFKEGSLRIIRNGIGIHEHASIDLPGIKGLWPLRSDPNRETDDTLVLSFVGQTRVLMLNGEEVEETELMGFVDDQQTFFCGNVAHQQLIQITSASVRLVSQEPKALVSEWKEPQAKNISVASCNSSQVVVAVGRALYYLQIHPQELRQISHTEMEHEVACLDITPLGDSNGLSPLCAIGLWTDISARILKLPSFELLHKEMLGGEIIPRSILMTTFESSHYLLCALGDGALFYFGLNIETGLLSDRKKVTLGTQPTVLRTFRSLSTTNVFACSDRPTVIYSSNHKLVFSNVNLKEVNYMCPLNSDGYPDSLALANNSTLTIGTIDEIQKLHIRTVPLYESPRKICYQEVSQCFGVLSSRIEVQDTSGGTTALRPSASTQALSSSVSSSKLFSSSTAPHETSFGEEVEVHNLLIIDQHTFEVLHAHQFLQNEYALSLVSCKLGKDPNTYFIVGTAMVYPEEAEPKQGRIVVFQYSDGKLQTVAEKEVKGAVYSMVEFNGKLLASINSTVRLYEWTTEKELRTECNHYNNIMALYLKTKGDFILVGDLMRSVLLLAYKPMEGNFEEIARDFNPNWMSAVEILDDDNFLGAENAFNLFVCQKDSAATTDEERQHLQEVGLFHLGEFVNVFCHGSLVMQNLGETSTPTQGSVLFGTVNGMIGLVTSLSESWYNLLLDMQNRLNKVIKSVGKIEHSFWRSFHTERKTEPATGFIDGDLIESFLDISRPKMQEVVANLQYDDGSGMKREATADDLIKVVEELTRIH",
  "assay": "Cellular RET degradation, AlphaLISA, TPC-1 cell line",
  "assay_type": "cell-based",
  "details": "for Dmax: TPC1, human, 24 h, read-out: Cell Density TPC-1/CCDC6-RET Ymax %; for DC50: read-out: Cell Density TPC-1/CCDC6-RET DC50, half-maximal degradation concentration, TPC-1 (CCDC6-RET), 24 hrs",
  "protocol": "Cellular RET degradation compound potency was determined using the bead-based luminescent amplification assay-AlphaLISA Surefire Ultra Detection Kit (Perkin-Elmer). The CCDC6-RET fusion expressing papillary thyroid carcinoma (TPC-1) cell line was selected for screening of potential degraders: Parental (TPC-1/CCDC6-RET). Cells were plated in 384 well culture plates (Greiner Bio-One) at 10,000 cells/well in 50 ul/well DMEM (Fisher Scientific) with 2% FBS serum (Gibco). […] Low normalization wells were media only and high normalization wells were cells treated with DMSO only. Treated cell plates were placed in an incubator at 37 °C and 5% CO2 for 24 hrs. At 24 hrs, cell media was removed by a FELIX automated liquid hander (Analytik Jena) and 25 ul of cell lysis buffer (provided in AlphaLisa kit) was added to each well. […] cell lysate were transferred into a 384-well microplate (Perkin Elmer) before addition of 2.5 ul AlphaLISA Acceptor Bead mix. The plates were sealed and kept at room temperature for 1 hr before addition of donor bead mixture. Donor bead addition was performed in the dark and incubated for >1 hr before AlphaLISA luminescence was measured on an Envision plate reader with an Alphascreen aperture at RT (excitation 680 nm, emission 615 nm). RET protein abundance (and therefore degradation) directly corresponds to luminescence intensity.\nIntensities were normalized relative to the average values from 16 wells containing media alone (blank-low) and 16 wells containing cells +DMSO (high). % Degradation for each well was determined using the standard equation, where\nDC50 (IC50) values for each compound tested are calculated by analyzing plots of % degradation versus compound concentration, and fitting to the standard 4-parameter logistic curve where,\nDC50 values are calculated according to the relationship,\nCompound replicates were performed in independent assays. Maximum degradation (YMax) was defined as the maximal % degradation value from the 4-parameter logistic equation, as previously described.",
  "data": [
    {"smiles": "CCOc1cc(-c2ccc(N3CCC(CN4CCN(C(=O)CCCCCCCCNc5ccc6c(N7CCC(=O)NC7=O)nn(C)c6c5)CC4)(NC(=O)c4cc(F)ccc4F)CC3)nc2)c2c(C#N)cnn2c1", "note": "[Example 24, N-[1-(5-{3-cyano-6-ethoxypyrazolo[1,5-a]pyridin-4-yl}pyridin-2-yl)-4-{[4-(9-{[3-(2,4-dioxo-1,3-diazinan-1-yl)-1-methyl-1H-indazol-6-yl]amino}nonanoyl)piperazin-1-yl]methyl}piperidin-4-yl]-2,5-difluorobenzamide]", "values": [
      {"measurement": "Dmax", "result": "60 to 90", "unit": "%"},
      {"measurement": "DC50", "result": "10 to 100", "unit": "nM"}
    ]},
    {"smiles": "CCOc1cc(-c2ccc(N3CCC(CN4CCN(C(=O)CCCCCCCCNc5ccc6c(C7CCC(=O)NC7=O)nn(C)c6c5)CC4)(NC(=O)c4cc(F)ccc4F)CC3)nc2)c2c(C#N)cnn2c1", "note": "(stereo not drawn) [Example 25, N-[1-(5-{3-cyano-6-ethoxypyrazolo[1,5-a]pyridin-4-yl}pyridin-2-yl)-4-{[4-(9-{[3-(2,6-dioxopiperidin-3-yl)-1-methyl-1H-indazol-6-yl]amino}nonanoyl)piperazin-1-yl]methyl}piperidin-4-yl]-2,5-difluorobenzamide]", "values": [
      {"measurement": "Dmax", "result": "> 90", "unit": "%"},
      {"measurement": "DC50", "result": "2 to 10", "unit": "nM"}
    ]},
    {"smiles": "CCOc1cc(-c2ccc(N3CCC(CN4CCN(C(=O)CCCCNC(=O)COc5cccc6c5CN(C5CCC(=O)NC5=O)C6=O)CC4)(NC(=O)c4cc(F)ccc4F)CC3)nc2)c2c(C#N)cnn2c1", "note": "(stereo not drawn) [Example 26, N-[1-(5-{3-cyano-6-ethoxypyrazolo[1,5-a]pyridin-4-yl}pyridin-2-yl)-4-({4-[5-(2-{[2-(2,6-dioxopiperidin-3-yl)-1-oxo-2,3-dihydro-1H-isoindol-4-yl]oxy}acetamido)pentanoyl]piperazin-1-yl}methyl)piperidin-4-yl]-2,5-difluorobenzamide]", "values": [
      {"measurement": "Dmax", "result": "> 90", "unit": "%"},
      {"measurement": "DC50", "result": "2 to 10", "unit": "nM"}
    ]},
    {"smiles": "CCOc1cc(-c2ccc(N3CCC(CN4CCN(C(=O)CCCCCCNC(=O)COc5cccc6c5CN(C5CCC(=O)NC5=O)C6=O)CC4)(NC(=O)c4cc(F)ccc4F)CC3)nc2)c2c(C#N)cnn2c1", "note": "(stereo not drawn) [Example 27, N-[1-(5-{3-cyano-6-ethoxypyrazolo[1,5-a]pyridin-4-yl}pyridin-2-yl)-4-({4-[7-(2-{[2-(2,6-dioxopiperidin-3-yl)-1-oxo-2,3-dihydro-1H-isoindol-4-yl]oxy}acetamido)heptanoyl]piperazin-1-yl}methyl)piperidin-4-yl]-2,5-difluorobenzamide]", "values": [
      {"measurement": "Dmax", "result": "60 to 90", "unit": "%"},
      {"measurement": "DC50", "result": "2 to 10", "unit": "nM"}
    ]},
    {"smiles": "CCOc1cc(-c2ccc(N3CCC(CN4CCN(C(=O)CCCCCCCCCCNC(=O)COc5cccc6c5CN(C5CCC(=O)NC5=O)C6=O)CC4)(NC(=O)c4cc(F)ccc4F)CC3)nc2)c2c(C#N)cnn2c1", "note": "(stereo not drawn) [Example 28, N-[1-(5-{3-cyano-6-ethoxypyrazolo[1,5-a]pyridin-4-yl}pyridin-2-yl)-4-({4-[11-(2-{[2-(2,6-dioxopiperidin-3-yl)-1-oxo-2,3-dihydro-1H-isoindol-4-yl]oxy}acetamido)undecanoyl]piperazin-1-yl}methyl)piperidin-4-yl]-2,5-difluorobenzamide]", "values": [
      {"measurement": "Dmax", "result": "60 to 90", "unit": "%"},
      {"measurement": "DC50", "result": "10 to 100", "unit": "nM"}
    ]},
    {"smiles": "CCOc1cc(-c2ccc(N3CCC(CN4CCN(C(=O)CCCCCCCCCCCCNC(=O)COc5cccc6c5CN(C5CCC(=O)NC5=O)C6=O)CC4)(NC(=O)c4cc(F)ccc4F)CC3)nc2)c2c(C#N)cnn2c1", "note": "(stereo not drawn) [Example 29, N-[1-(5-{3-cyano-6-ethoxypyrazolo[1,5-a]pyridin-4-yl}pyridin-2-yl)-4-({4-[13-(2-{[2-(2,6-dioxopiperidin-3-yl)-1-oxo-2,3-dihydro-1H-isoindol-4-yl]oxy}acetamido)tridecanoyl]piperazin-1-yl}methyl)piperidin-4-yl]-2,5-difluorobenzamide]", "values": [
      {"measurement": "Dmax", "result": "> 90", "unit": "%"},
      {"measurement": "DC50", "result": "10 to 100", "unit": "nM"}
    ]},
    {"smiles": "CCOc1cc(-c2ccc(N3CCC(CN4CCN(C(=O)CCCCCCCCCCCCCCNC(=O)COc5cccc6c5CN(C5CCC(=O)NC5=O)C6=O)CC4)(NC(=O)c4cc(F)ccc4F)CC3)nc2)c2c(C#N)cnn2c1", "note": "(stereo not drawn) [Example 30, N-[1-(5-{3-cyano-6-ethoxypyrazolo[1,5-a]pyridin-4-yl}pyridin-2-yl)-4-({4-[15-(2-{[2-(2,6-dioxopiperidin-3-yl)-1-oxo-2,3-dihydro-1H-isoindol-4-yl]oxy}acetamido)pentadecanoyl]piperazin-1-yl}methyl)piperidin-4-yl]-2,5-difluorobenzamide]", "values": [
      {"measurement": "Dmax", "result": "60 to 90", "unit": "%"},
      {"measurement": "DC50", "result": "100 to 2000", "unit": "nM"}
    ]},
    {"smiles": "CCOc1cc(-c2ccc(N3CCC(COCC(=O)NCCCCN4CCN(c5ccc6c(c5)CN(C5CCC(=O)NC5=O)C6=O)CC4)(NC(=O)c4cc(F)ccc4F)CC3)nc2)c2c(C#N)cnn2c1", "note": "(stereo not drawn) [Example 31, N-[1-[5-(3-cyano-6-ethoxy-pyrazolo[1,5-a]pyridin-4-yl)-2-pyridyl]-4-[[2-[4-[4-[2-(2,6-dioxo-3-piperidyl)-1-oxo-isoindolin-5-yl]piperazin-1-yl]butylamino]-2-oxo-ethoxy]methyl]-4-piperidyl]-2,5-difluoro-benzamide]", "values": [
      {"measurement": "Dmax", "result": "60 to 90", "unit": "%"},
      {"measurement": "DC50", "result": "2 to 10", "unit": "nM"}
    ]},
    {"smiles": "CCOc1cc(-c2ccc(N3CCC(COCCN4CCN(C(=O)CCN5CCC(c6ccc7c(c6)C(=O)N(C6CCC(=O)NC6=O)C7)CC5)CC4)(NC(=O)c4cc(F)ccc4F)CC3)nc2)c2c(C#N)cnn2c1", "note": "(stereo not drawn) [Example 32, N-[1-[5-(3-cyano-6-ethoxy-pyrazolo[1,5-a]pyridin-4-yl)-2-pyridyl]-4-[2-[4-[3-[4-[2-(2,6-dioxo-3-piperidyl)-3-oxo-isoindolin-5-yl]-1-piperidyl]propanoyl]piperazin-1-yl]ethoxymethyl]-4-piperidyl]-2,5-difluoro-benzamide]", "values": [
      {"measurement": "Dmax", "result": "60 to 90", "unit": "%"},
      {"measurement": "DC50", "result": "10 to 100", "unit": "nM"}
    ]},
    {"smiles": "CCOc1cc(-c2ccc(N3CCC(COCCN4CCN(C(=O)CCN5CCN(c6ccc7c(c6)C(=O)N(C6CCC(=O)NC6=O)C7)CC5)CC4)(NC(=O)c4cc(F)ccc4F)CC3)nc2)c2c(C#N)cnn2c1", "note": "(stereo not drawn) [Example 33, N-[1-[5-(3-cyano-6-ethoxy-pyrazolo[1,5-a]pyridin-4-yl)-2-pyridyl]-4-[2-[4-[3-[4-[2-(2,6-dioxo-3-piperidyl)-3-oxo-isoindolin-5-yl]piperazin-1-yl]propanoyl]piperazin-1-yl]ethoxymethyl]-4-piperidyl]-2,5-difluoro-benzamide]", "values": [
      {"measurement": "Dmax", "result": "60 to 90", "unit": "%"},
      {"measurement": "DC50", "result": "2 to 10", "unit": "nM"}
    ]},
    {"smiles": "CCOc1cc(-c2ccc(N3CCC(COCCN4CCN(C(=O)CCN5CCN(c6ccc7c(c6)CN(C6CCC(=O)NC6=O)C7=O)CC5)CC4)(NC(=O)c4cc(F)ccc4F)CC3)nc2)c2c(C#N)cnn2c1", "note": "(stereo not drawn) [Example 34, N-[1-[5-(3-cyano-6-ethoxy-pyrazolo[1,5-a]pyridin-4-yl)-2-pyridyl]-4-[2-[4-[3-[4-[2-(2,6-dioxo-3-piperidyl)-1-oxo-isoindolin-5-yl]piperazin-1-yl]propanoyl]piperazin-1-yl]ethoxymethyl]-4-piperidyl]-2,5-difluoro-benzamide]", "values": [
      {"measurement": "Dmax", "result": "> 90", "unit": "%"},
      {"measurement": "DC50", "result": "10 to 100", "unit": "nM"}
    ]},
    {"smiles": "CCOc1cc(-c2ccc(N3CCC(COCCN4CCN(C(=O)CCCCN5CCN(c6ccc7c(c6)CN(C6CCC(=O)NC6=O)C7=O)CC5)CC4)(NC(=O)c4cc(F)ccc4F)CC3)nc2)c2c(C#N)cnn2c1", "note": "(stereo not drawn) [Example 35, N-[1-[5-(3-cyano-6-ethoxy-pyrazolo[1,5-a]pyridin-4-yl)-2-pyridyl]-4-[2-[4-[5-[4-[2-(2,6-dioxo-3-piperidyl)-1-oxo-isoindolin-5-yl]piperazin-1-yl]pentanoyl]piperazin-1-yl]ethoxymethyl]-4-piperidyl]-2,5-difluoro-benzamide]", "values": [
      {"measurement": "Dmax", "result": "> 90", "unit": "%"},
      {"measurement": "DC50", "result": "10 to 100", "unit": "nM"}
    ]}
  ]
}
